Reference: patent US12479843B2, “Spiro ring-containing quinazoline compounds” (WIGEN BIOMEDICINE TECHNOLOGY (SHANGHAI) CO., LTD., priority 2019, dated 2025)
pIC50: −log10 of the molar value.

test system: H358 cells; test: Antiproliferative activity against H358 cells (Cell Titer Glow, ultra-low attachment plate); type: cell-based; conditions: Homo sapiens, NCI-H358, 72 h, 96-well ultra-low attachment plate, three days after addition of compound, Cell Titer Glow
Procedure: 2500 H358 cells were seeded in a 96-well ultra-low attachment plate (corning, 7007). After one day of growth, a serially diluted compound (a maximum concentration of 5 μM, 5-fold dilution, a total of five doses) was added. Three days after the addition of the compound, Cell Titer Glow (Promega, G9681) was added to evaluate pellet growth, and the IC50 value was calculated.

| Structure (SMILES) | pIC50 |
| --- | --- |
| C=CC(=O)N1CC2(CCN(c3nc(N(C)CCN4CC[C@H](O)C4)nc4c(OCC(F)(F)F)c(-c5c(C)ccc6[nH]ncc56)c(C5CC5)cc34)CC2)C1 [Compound 234] | > 6.52 |
| C=Cc1cc2c(N3CCC4(CC3)CN(C(=O)C(=C)F)C4)nc(OC3CCN(CCOC)CC3)nc2c(OCC)c1-c1c(C)ccc2[nH]ncc12 [Compound 4] | > 6.52 |
| C=C(F)C(=O)N1CC2(CCN(c3nc(O[C@H]4CCN(C5COC5)C4)nc4c(OCC(F)(F)F)c(-c5c(C)ccc6[nH]ncc56)c(C5CC5)cc34)CC2)C1 [Compound 66] | 6.00 to 6.52 |
| C=CC(=O)N1CC2(CCN(c3nc(N4CC(N5CCCC5)C4)nc4c(OCC(F)(F)F)c(-c5c(C)c(F)cc6[nH]ncc56)c(C=C)cc34)CC2)C1 [Compound 224] | > 6.52 |
| C=CC(=O)N1CC2(CCN(c3nc(N4CC[C@H](N(C)CC)C4)nc4c(OCC(F)(F)F)c(-c5c(C)ccc6[nH]ncc56)c(C5CC5)cc34)CC2)C1 [Compound 187] | > 6.52 |
| C=C(F)C(=O)N1CC2(CCN(c3nc(OC4CCC5(CC4)CN(CCOC)C5)nc4c(OCC(F)(F)F)c(-c5c(C)ccc6[nH]ncc56)c(C5CC5)cc34)CC2)C1 [Compound 138] | > 6.52 |
| C=CC(=O)N1CC2(CCN(c3nc(N4CCC5(CCN(C)CC5)CC4)nc4c(OCC(F)(F)F)c(-c5c(C)ccc6[nH]ncc56)c(C5CC5)cc34)CC2)C1 [Compound 164] | > 6.52 |
| C=CC(=O)N1CC2(CCN(c3nc(N4CCN(C5COC5)CC4)nc4c(OCC(F)(F)F)c(-c5c(C)ccc6[nH]ncc56)c(C5CC5)cc34)CC2)C1 [Compound 152] | > 6.52 |
| C=CC(=O)N1CC2(CCN(c3nc(OC4CN(C5COC5)C4)nc4c(OCC(F)(F)F)c(-c5c(C)ccc6[nH]ncc56)c(C5CC5)cc34)CC2)C1 [Compound 111] | > 6.52 |
| C=CC(=O)N1CC2(CCN(c3nc(N4CC5(CCS(=O)(=O)CC5)C4)nc4c(OCC(F)(F)F)c(-c5c(C)ccc6[nH]ncc56)c(C5CC5)cc34)CC2)C1 [Compound 307] | > 6.52 |
| C=CC(=O)N1CC2(CCN(c3nc(N4CCC5(CCN(CCOC)C5)C4)nc4c(OCC(F)(F)F)c(-c5c(C)ccc6[nH]ncc56)c(C5CC5)cc34)CC2)C1 (stereo not drawn) [Compound 160] | > 6.52 |
| C=C(F)C(=O)N1CC2(CCN(c3nc(N4CCC5(CN(C)C5)C4)nc4c(OCC(F)(F)F)c(-c5c(C)ccc6[nH]ncc56)c(C5CC5)cc34)CC2)C1 [Compound 98] | 6.00 to 6.52 |
| C=CC(=O)N1CC2(CCN(c3nc(N4CC5(CC(OC)C5)C4)nc4c(OCC(F)(F)F)c(-c5c(C)ccc6[nH]ncc56)c(C5CC5)cc34)CC2)C1 [Compound 283] | 6.00 to 6.52 |
| C=CC(=O)N1CC2(CCN(c3nc(OC4CCN(CCOC)CC4)nc4c(N5CCC5)c(-c5c(C)ccc6[nH]ncc56)c(C5CC5)cc34)CC2)C1 [Compound 8] | 6.00 to 6.52 |

More lines, now with the values ahead:

| pIC50 | Structure (SMILES) |
| --- | --- |
| > 6.52 | C=CC(=O)N1CC2(CCN(c3nc(N4CC(N5CC(C)(O)C5)C4)nc4c(OCC(F)(F)F)c(-c5c(C)ccc6[nH]ncc56)c(C5CC5)cc34)CC2)C1 [Compound 240] |
| > 6.52 | C=CC(=O)N1CC2(CCN(c3nc(N4CC(N5CC[C@@H](C)C5)C4)nc4c(OCC)c(-c5c(C)ccc6[nH]ncc56)c(C5CC5)cc34)CC2)C1 [Compound 331] |
| > 6.52 | C=CC(=O)N1CC2(CCN(c3nc(N4CC[C@@H](N5CC[C@H](F)C5)C4)nc4c(OCC(F)(F)F)c(-c5c(C)ccc6[nH]ncc56)c(C5CC5)cc34)CC2)C1 [Compound 192] |
| > 6.52 | C=CC(=O)N1CC2(CCN(c3nc(N4CC(N5C[C@@H](O)[C@@H](F)C5)C4)nc4c(OCC(F)(F)F)c(-c5c(C)ccc6[nH]ncc56)c(C5CC5)cc34)CC2)C1 [Compound 262] |
| > 6.52 | C=CC(=O)N1CC2(CCN(c3nc(N4CC(N5CC[C@@H](C)C5)C4)nc4c(OCC(F)(F)F)c(-c5c(C)ccc6[nH]ncc56)c(C5CC5)cc34)CC2)C1 [Compound 248] |
| 6.00 to 6.52 | C=CC(=O)N1CC2(CCN(c3nc(N4CC(N5CC[C@@H](C(C)(C)O)C5)C4)nc4c(OCC(F)(F)F)c(-c5c(C)ccc6[nH]ncc56)c(C5CC5)cc34)CC2)C1 [Compound 254] |
| > 6.52 | C=CC(=O)N1CC2(CCN(c3nc(N4CC(N5CCC[C@H]5CO)C4)nc4c(OCC(F)(F)F)c(-c5c(C)ccc6[nH]ncc56)c(C5CC5)cc34)CC2)C1 [Compound 252] |

test system: pERK level in H358 cells; test: pERK and ERK protein content assay in H358 cells (ELISA); type: cell-based; conditions: Homo sapiens, NCI-H358, compound 1 μM, 24 h, pERK/ERK ratio compared with DMSO group, read-out: Inhibition rate (%) of pERK level
Method in brief: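 H358 cells grown one day, then treated 24 h with compound at 1 μM. pERK and ERK in lysates measured by ELISA; pERK/ERK ratio expressed as percent inhibition versus DMSO.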

| Structure (SMILES) | inhibition at 1 µM [%] |
| --- | --- |
| C=CC(=O)N1CC2(CCN(c3nc(N(C)CCN4CC[C@H](O)C4)nc4c(OCC(F)(F)F)c(-c5c(C)ccc6[nH]ncc56)c(C5CC5)cc34)CC2)C1 [Compound 234] | > 90 |
| C=Cc1cc2c(N3CCC4(CC3)CN(C(=O)C(=C)F)C4)nc(OC3CCN(CCOC)CC3)nc2c(OCC)c1-c1c(C)ccc2[nH]ncc12 [Compound 4] | > 90 |
| C=CC(=O)N1CC2(CCN(c3nc(N4CC(N5CC(C)(O)C5)C4)nc4c(OCC(F)(F)F)c(-c5c(C)ccc6[nH]ncc56)c(C5CC5)cc34)CC2)C1 [Compound 240] | > 90 |
| C=C(F)C(=O)N1CC2(CCN(c3nc(O[C@H]4CCN(C5COC5)C4)nc4c(OCC(F)(F)F)c(-c5c(C)ccc6[nH]ncc56)c(C5CC5)cc34)CC2)C1 [Compound 66] | 50 to 90 |
| C=CC(=O)N1CC2(CCN(c3nc(N4CC(N5CCCC5)C4)nc4c(OCC(F)(F)F)c(-c5c(C)c(F)cc6[nH]ncc56)c(C=C)cc34)CC2)C1 [Compound 224] | > 90 |
| C=CC(=O)N1CC2(CCN(c3nc(N4CC(N5CC[C@@H](C)C5)C4)nc4c(OCC)c(-c5c(C)ccc6[nH]ncc56)c(C5CC5)cc34)CC2)C1 [Compound 331] | > 90 |
| C=CC(=O)N1CC2(CCN(c3nc(N4CC[C@H](N(C)CC)C4)nc4c(OCC(F)(F)F)c(-c5c(C)ccc6[nH]ncc56)c(C5CC5)cc34)CC2)C1 [Compound 187] | > 90 |
| C=C(F)C(=O)N1CC2(CCN(c3nc(OC4CCC5(CC4)CN(CCOC)C5)nc4c(OCC(F)(F)F)c(-c5c(C)ccc6[nH]ncc56)c(C5CC5)cc34)CC2)C1 [Compound 138] | > 90 |
| C=CC(=O)N1CC2(CCN(c3nc(N4CCC5(CCN(C)CC5)CC4)nc4c(OCC(F)(F)F)c(-c5c(C)ccc6[nH]ncc56)c(C5CC5)cc34)CC2)C1 [Compound 164] | > 90 |
| C=CC(=O)N1CC2(CCN(c3nc(N4CCN(C5COC5)CC4)nc4c(OCC(F)(F)F)c(-c5c(C)ccc6[nH]ncc56)c(C5CC5)cc34)CC2)C1 [Compound 152] | > 90 |
| C=CC(=O)N1CC2(CCN(c3nc(N4CC[C@@H](N5CC[C@H](F)C5)C4)nc4c(OCC(F)(F)F)c(-c5c(C)ccc6[nH]ncc56)c(C5CC5)cc34)CC2)C1 [Compound 192] | > 90 |
| C=CC(=O)N1CC2(CCN(c3nc(OC4CN(C5COC5)C4)nc4c(OCC(F)(F)F)c(-c5c(C)ccc6[nH]ncc56)c(C5CC5)cc34)CC2)C1 [Compound 111] | > 90 |
| C=CC(=O)N1CC2(CCN(c3nc(N4CC5(CCS(=O)(=O)CC5)C4)nc4c(OCC(F)(F)F)c(-c5c(C)ccc6[nH]ncc56)c(C5CC5)cc34)CC2)C1 [Compound 307] | > 90 |
| C=CC(=O)N1CC2(CCN(c3nc(N4CCC5(CCN(CCOC)C5)C4)nc4c(OCC(F)(F)F)c(-c5c(C)ccc6[nH]ncc56)c(C5CC5)cc34)CC2)C1 (stereo not drawn) [Compound 160] | > 90 |
| C=CC(=O)N1CC2(CCN(c3nc(N4CC(N5C[C@@H](O)[C@@H](F)C5)C4)nc4c(OCC(F)(F)F)c(-c5c(C)ccc6[nH]ncc56)c(C5CC5)cc34)CC2)C1 [Compound 262] | > 90 |
| C=CC(=O)N1CC2(CCN(c3nc(N4CC(N5CC[C@@H](C)C5)C4)nc4c(OCC(F)(F)F)c(-c5c(C)ccc6[nH]ncc56)c(C5CC5)cc34)CC2)C1 [Compound 248] | > 90 |
| C=C(F)C(=O)N1CC2(CCN(c3nc(N4CCC5(CN(C)C5)C4)nc4c(OCC(F)(F)F)c(-c5c(C)ccc6[nH]ncc56)c(C5CC5)cc34)CC2)C1 [Compound 98] | 50 to 90 |
| C=CC(=O)N1CC2(CCN(c3nc(N4CC(N5CC[C@@H](C(C)(C)O)C5)C4)nc4c(OCC(F)(F)F)c(-c5c(C)ccc6[nH]ncc56)c(C5CC5)cc34)CC2)C1 [Compound 254] | > 90 |
| C=CC(=O)N1CC2(CCN(c3nc(N4CC(N5CCC[C@H]5CO)C4)nc4c(OCC(F)(F)F)c(-c5c(C)ccc6[nH]ncc56)c(C5CC5)cc34)CC2)C1 [Compound 252] | > 90 |
| C=CC(=O)N1CC2(CCN(c3nc(N4CC5(CC(OC)C5)C4)nc4c(OCC(F)(F)F)c(-c5c(C)ccc6[nH]ncc56)c(C5CC5)cc34)CC2)C1 [Compound 283] | 50 to 90 |
| C=CC(=O)N1CC2(CCN(c3nc(OC4CCN(CCOC)CC4)nc4c(N5CCC5)c(-c5c(C)ccc6[nH]ncc56)c(C5CC5)cc34)CC2)C1 [Compound 8] | 50 to 90 |
